The values that follow come from ChEMBL document CHEMBL5649169 (ChemMedChem, 2018).

Among the targets are Erlin-2 (Homo sapiens) (UniProt O94905); Radixin (Homo sapiens) (UniProt P35241); Macoilin (Homo sapiens) (UniProt Q8N5G2).
In assay [1] the target is Acyl-CoA dehydrogenase family member 11 (Homo sapiens) (UniProt Q709F0).
The target in assay [2] is ATP synthase peripheral stalk subunit OSCP, mitochondrial (Homo sapiens) (UniProt P48047).
Assay [3] addresses Histone-arginine methyltransferase CARM1 (Homo sapiens) (UniProt Q86X55).
Assay [4] deals with Chloride intracellular channel protein 4 (Homo sapiens) (UniProt Q9Y696).
In assay [5] the target is Dolichol-phosphate mannosyltransferase subunit 1 (Homo sapiens) (UniProt O60762).
The target of assay [6] is C-1-tetrahydrofolate synthase, cytoplasmic (Homo sapiens) (UniProt P11586).
Assay [7] deals with NAD(P) transhydrogenase, mitochondrial (Homo sapiens) (UniProt Q13423).
Assay [8] deals with Proteasome subunit alpha type-3 (Homo sapiens) (UniProt P25788).
The target in assay [9] is Small ribosomal subunit protein eS28 (Homo sapiens) (UniProt P62857).
Assay [10] deals with Serine-threonine kinase receptor-associated protein (Homo sapiens) (UniProt Q9Y3F4).
Assay [11] concerns the target EKC/KEOPS complex subunit TPRKB (Homo sapiens) (UniProt Q9Y3C4).
For assay [12], the target named is Cyclin-dependent kinase 2 (Homo sapiens) (UniProt P24941).
The target in assay [13] is RNA polymerase-associated protein CTR9 homolog (Homo sapiens) (UniProt Q6PD62).
Assay [14] has as its target Eukaryotic translation initiation factor 2-alpha kinase 1 (Homo sapiens) (UniProt Q9BQI3).
For assay [15], the target named is Protein prenyltransferase alpha subunit repeat-containing protein 1 (Homo sapiens) (UniProt Q7Z6K3).
In assay [16] the target is Small ribosomal subunit protein uS11 (Homo sapiens) (UniProt P62263).
In assay [17] the target is Translocon-associated protein subunit delta (Homo sapiens) (UniProt P51571).
Assay [18] deals with Serine/threonine-protein kinase 26 (Homo sapiens) (UniProt Q9P289).
Assay [19] addresses Tubulin alpha-4A chain (Homo sapiens) (UniProt P68366).
Assay [20] concerns the target Non-selective voltage-gated ion channel VDAC2 (Homo sapiens) (UniProt P45880).
In assay [21] the target is V-type proton ATPase 16 kDa proteolipid subunit c (Homo sapiens) (UniProt P27449).
For assay [22], the target named is Lipid scramblase CLPTM1L (Homo sapiens) (UniProt Q96KA5).
The target of assay [23] is Cleavage and polyadenylation specificity factor subunit 1 (Homo sapiens) (UniProt Q10570).
The species entered for assay [24] is Homo sapiens.
Assay [25] deals with Transcriptional repressor CTCF (Homo sapiens) (UniProt P49711).
Assay [26] concerns the target Cytoplasmic FMR1-interacting protein 2 (Homo sapiens) (UniProt Q96F07).
In assay [27] the target is Forkhead box protein K1 (Homo sapiens) (UniProt P85037).
The species named for assay [28] is Homo sapiens. The source holds these as a separate data set.
The target in assay [29] is Heterogeneous nuclear ribonucleoprotein D-like (Homo sapiens) (UniProt O14979).
For assay [30], the target named is Membrane-bound glycerophospholipid O-acyltransferase 1 (Homo sapiens) (UniProt Q6ZNC8).
The target of assay [31] is Small ribosomal subunit protein uS2m (Homo sapiens) (UniProt Q9Y399).
For assay [32], the target named is Nucleolar protein 58 (Homo sapiens) (UniProt Q9Y2X3).
For assay [33], the target named is PAS domain-containing serine/threonine-protein kinase (Homo sapiens) (UniProt Q96RG2).
Assay [34] is filed under the species Homo sapiens. This is another data set of the same source.
Assay [35] has as its target Phosphatidylinositol 4,5-bisphosphate 3-kinase catalytic subunit beta isoform (Homo sapiens) (UniProt P42338).
The target of assay [36] is Syndecan-2 (Homo sapiens) (UniProt P34741).
Assay [37] concerns the target SWI/SNF-related matrix-associated actin-dependent regulator of chromatin subfamily A member 1 (Homo sapiens) (UniProt P28370).
Assay [38] deals with Small nuclear ribonucleoprotein F (Homo sapiens) (UniProt P62306).
The target of assay [39] is Receptor for retinol uptake STRA6 (Homo sapiens) (UniProt Q9BX79).
For assay [40], the target named is STE20-related kinase adapter protein alpha (Homo sapiens) (UniProt Q7RTN6).
The species named for assay [41] is Homo sapiens. The source holds these as a separate data set.
For assay [42], the species on record is Homo sapiens. This is another data set of the same source.
The target in assay [43] is Protein YIF1A (Homo sapiens) (UniProt O95070).
Assay [44] deals with Signal recognition particle receptor subunit alpha (Homo sapiens) (UniProt P08240).
For assay [45], the target named is Large ribosomal subunit protein bL9m (Homo sapiens) (UniProt Q9BYD2).
Further: assay method not described here.

Sequence of Nucleolar protein 58 (Homo sapiens) (Q9Y2X3 whole entry, the tested form may be a part): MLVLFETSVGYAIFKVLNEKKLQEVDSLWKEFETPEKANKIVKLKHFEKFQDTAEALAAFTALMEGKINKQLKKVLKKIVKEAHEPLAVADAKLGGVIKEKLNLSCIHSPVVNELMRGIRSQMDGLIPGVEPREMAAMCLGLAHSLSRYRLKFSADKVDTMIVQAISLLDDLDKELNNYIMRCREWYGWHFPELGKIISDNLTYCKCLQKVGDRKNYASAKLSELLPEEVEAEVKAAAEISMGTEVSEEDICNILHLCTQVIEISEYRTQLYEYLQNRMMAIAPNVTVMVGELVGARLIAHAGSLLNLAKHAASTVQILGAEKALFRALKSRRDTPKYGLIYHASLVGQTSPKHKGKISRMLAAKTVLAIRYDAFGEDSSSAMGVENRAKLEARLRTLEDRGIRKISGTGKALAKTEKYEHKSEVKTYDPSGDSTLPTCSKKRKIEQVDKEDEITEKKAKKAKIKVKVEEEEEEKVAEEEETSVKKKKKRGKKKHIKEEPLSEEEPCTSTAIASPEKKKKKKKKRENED
Sequence of Macoilin (Homo sapiens) (Q8N5G2 whole entry): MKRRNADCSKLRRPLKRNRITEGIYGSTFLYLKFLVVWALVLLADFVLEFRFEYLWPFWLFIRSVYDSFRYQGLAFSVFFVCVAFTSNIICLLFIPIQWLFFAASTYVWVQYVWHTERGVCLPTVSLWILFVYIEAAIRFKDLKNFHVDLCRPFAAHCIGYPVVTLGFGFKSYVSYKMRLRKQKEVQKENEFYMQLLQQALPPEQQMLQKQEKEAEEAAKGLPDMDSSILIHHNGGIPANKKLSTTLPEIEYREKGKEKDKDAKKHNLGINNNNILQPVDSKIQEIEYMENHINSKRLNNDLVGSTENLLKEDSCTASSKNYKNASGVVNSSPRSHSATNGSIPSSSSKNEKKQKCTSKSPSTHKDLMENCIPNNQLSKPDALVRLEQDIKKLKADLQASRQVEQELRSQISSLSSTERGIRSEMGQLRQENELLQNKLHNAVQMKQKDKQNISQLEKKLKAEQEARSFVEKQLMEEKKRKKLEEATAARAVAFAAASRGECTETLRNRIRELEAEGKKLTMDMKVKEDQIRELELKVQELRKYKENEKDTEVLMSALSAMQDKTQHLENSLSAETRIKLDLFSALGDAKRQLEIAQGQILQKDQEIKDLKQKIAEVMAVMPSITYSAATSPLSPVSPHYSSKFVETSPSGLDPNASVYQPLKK
Sequence of Serine/threonine-protein kinase 26 (Homo sapiens) (Q9P289 2-416 limits assumed): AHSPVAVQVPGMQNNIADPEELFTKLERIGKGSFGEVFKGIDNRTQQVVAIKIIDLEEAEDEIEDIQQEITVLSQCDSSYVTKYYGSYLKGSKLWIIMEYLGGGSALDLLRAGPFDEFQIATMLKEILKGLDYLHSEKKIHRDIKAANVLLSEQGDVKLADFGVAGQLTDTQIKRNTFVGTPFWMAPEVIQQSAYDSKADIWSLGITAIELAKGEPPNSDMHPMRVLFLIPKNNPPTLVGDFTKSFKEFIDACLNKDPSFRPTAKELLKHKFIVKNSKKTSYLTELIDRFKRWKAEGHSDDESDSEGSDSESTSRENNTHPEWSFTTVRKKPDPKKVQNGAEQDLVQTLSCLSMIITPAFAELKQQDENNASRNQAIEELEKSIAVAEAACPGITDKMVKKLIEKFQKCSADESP
Sequence of NAD(P) transhydrogenase, mitochondrial (Homo sapiens) (Q13423 whole entry): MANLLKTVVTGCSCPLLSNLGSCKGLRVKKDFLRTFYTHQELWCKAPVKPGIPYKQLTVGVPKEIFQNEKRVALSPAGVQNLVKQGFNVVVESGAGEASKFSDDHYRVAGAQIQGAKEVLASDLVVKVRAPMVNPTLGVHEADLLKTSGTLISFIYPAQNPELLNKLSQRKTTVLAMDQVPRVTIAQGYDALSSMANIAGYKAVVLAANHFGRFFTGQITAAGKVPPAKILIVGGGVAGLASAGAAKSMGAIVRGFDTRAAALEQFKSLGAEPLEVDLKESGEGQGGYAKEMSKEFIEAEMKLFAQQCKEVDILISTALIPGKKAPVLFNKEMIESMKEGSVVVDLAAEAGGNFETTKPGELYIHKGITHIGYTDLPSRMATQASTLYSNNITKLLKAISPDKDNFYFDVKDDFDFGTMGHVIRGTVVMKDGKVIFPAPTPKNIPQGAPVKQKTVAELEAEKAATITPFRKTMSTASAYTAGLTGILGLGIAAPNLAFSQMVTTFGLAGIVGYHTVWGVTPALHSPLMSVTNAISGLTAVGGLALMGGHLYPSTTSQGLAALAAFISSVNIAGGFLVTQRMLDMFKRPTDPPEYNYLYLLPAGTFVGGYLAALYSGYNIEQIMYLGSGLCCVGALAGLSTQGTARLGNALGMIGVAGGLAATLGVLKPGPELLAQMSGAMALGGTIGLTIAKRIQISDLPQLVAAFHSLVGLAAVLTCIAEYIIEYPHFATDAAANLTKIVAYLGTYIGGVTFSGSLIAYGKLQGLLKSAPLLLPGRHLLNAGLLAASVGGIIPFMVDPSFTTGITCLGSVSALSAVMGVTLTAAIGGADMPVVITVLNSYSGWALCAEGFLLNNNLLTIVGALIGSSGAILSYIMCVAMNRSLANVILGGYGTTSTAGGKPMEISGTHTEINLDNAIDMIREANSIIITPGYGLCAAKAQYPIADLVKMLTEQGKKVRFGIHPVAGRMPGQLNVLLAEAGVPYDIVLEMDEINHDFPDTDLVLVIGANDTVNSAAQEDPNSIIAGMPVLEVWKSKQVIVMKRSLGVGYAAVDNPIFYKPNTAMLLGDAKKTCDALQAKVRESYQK
Sequence of Membrane-bound glycerophospholipid O-acyltransferase 1 (Homo sapiens) (Q6ZNC8 whole entry): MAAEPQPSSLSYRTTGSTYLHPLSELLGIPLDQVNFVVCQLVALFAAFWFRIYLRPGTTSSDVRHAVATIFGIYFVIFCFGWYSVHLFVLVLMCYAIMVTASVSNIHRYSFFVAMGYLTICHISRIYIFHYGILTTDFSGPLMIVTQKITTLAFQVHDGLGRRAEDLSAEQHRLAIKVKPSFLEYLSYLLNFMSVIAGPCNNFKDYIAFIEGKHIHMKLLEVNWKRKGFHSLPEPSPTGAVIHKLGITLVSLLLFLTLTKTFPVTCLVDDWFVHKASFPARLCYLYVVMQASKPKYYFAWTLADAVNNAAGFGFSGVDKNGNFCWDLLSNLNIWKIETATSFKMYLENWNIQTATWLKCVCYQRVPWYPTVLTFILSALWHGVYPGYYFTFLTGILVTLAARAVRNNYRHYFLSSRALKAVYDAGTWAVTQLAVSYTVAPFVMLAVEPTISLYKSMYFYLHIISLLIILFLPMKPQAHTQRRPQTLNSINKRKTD
Sequence of Eukaryotic translation initiation factor 2-alpha kinase 1 (Homo sapiens) (Q9BQI3 whole entry): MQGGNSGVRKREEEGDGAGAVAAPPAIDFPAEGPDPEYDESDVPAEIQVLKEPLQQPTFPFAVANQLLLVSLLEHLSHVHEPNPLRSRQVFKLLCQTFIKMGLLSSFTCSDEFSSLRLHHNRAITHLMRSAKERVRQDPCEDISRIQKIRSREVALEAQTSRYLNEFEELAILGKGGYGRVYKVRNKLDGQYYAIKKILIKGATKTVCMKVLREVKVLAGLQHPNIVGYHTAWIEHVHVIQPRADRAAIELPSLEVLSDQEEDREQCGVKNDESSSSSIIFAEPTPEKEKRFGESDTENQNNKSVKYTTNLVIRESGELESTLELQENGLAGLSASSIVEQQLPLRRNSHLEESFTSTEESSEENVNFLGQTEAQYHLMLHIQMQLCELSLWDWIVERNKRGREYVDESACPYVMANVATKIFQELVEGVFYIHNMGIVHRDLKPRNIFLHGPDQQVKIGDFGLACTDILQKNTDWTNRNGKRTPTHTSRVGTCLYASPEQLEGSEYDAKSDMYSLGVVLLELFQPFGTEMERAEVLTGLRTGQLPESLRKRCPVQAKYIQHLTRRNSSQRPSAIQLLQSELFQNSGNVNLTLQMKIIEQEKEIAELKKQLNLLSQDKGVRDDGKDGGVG
Sequence of Forkhead box protein K1 (Homo sapiens) (P85037 whole entry): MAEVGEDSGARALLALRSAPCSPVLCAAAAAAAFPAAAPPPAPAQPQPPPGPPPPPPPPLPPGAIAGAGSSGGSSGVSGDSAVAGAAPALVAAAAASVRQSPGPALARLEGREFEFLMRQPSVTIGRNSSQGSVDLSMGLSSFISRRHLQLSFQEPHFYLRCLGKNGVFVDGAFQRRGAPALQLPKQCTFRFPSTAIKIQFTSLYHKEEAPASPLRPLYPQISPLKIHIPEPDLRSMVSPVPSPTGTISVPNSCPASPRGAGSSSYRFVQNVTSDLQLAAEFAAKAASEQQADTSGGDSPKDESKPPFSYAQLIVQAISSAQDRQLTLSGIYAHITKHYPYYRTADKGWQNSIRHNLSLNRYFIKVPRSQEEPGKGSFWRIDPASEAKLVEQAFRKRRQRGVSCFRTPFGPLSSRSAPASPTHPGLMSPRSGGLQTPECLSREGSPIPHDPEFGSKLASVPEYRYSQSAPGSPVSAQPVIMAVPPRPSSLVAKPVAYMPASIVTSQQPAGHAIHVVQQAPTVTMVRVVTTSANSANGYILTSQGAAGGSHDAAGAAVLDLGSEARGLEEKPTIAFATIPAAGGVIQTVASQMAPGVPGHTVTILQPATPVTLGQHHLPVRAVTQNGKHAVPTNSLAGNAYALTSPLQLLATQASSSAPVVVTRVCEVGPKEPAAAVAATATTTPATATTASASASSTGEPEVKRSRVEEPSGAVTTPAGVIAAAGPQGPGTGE
Sequence of Heterogeneous nuclear ribonucleoprotein D-like (Homo sapiens) (O14979 whole entry): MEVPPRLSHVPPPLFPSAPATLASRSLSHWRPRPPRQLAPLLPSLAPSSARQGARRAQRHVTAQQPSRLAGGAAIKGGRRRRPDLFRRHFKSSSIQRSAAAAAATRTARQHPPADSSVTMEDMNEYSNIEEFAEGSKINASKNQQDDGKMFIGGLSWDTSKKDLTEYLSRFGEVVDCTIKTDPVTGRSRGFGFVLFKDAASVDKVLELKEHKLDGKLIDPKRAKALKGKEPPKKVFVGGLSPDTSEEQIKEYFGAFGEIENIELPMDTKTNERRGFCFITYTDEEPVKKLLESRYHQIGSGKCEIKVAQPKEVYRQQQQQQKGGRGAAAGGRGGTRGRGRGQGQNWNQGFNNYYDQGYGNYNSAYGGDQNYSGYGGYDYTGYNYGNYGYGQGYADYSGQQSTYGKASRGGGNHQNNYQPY

For the compound `Cc1ccc(C(=O)Nc2cccc(C(F)(F)F)c2)cc1Nc1nc(-c2cccnc2)nc2nn(C)cc12`, the ED50 in [1] worked out at 137 nM; in assay [2], 20.6 nM; in assay [3] it was 113 nM; in assay [4] it was 53.4 nM; in assay [5], 2900 nM; on Erlin-2 (Homo sapiens) it was 3060 nM. The ED50 in assay [6] was found to be 87.1 nM; in assay [7] it was 5.68 nM; in assay [8], 8.4 nM; in [9], 59.5 nM; in [10], 17.7 nM; in assay [11] it was 550 nM.
Consider `Cc1ccc(C(=O)Nc2cccc(C(F)(F)F)c2)cc1Nc1nc(-c2cccnc2)nc2c1cnn2C`, for which the ED50 turned out to be 47.5 nM in [12]; 5720 nM in assay [13]; 25600 nM in assay [14]; 15.5 nM in assay [15]; 2 nM at Radixin (Homo sapiens); 5300 nM in assay [16]. Moreover, the ED50 in assay [17] worked out at 217000 nM; in [18] it was 270 nM; in [19] it was 12.2 nM; in assay [20], 3150 nM; in assay [21], 2700 nM; in [22], 8.16 nM. The ED50 in assay [23] worked out at 11.8 nM; in the assay listed under Homo sapiens [24], 59 nM; in assay [25], 1990 nM; in assay [26], 6950 nM; in [27], 3.59 nM; in the assay listed under Homo sapiens [28] it was 11800 nM. Moreover, the ED50 is 68.5 nM in [29]; 900 nM in assay [30]; 4880 nM in assay [31]; 28.7 nM in [32]; 14700 nM in assay [33]; 15700 nM in the assay listed under Homo sapiens [34]. For the same compound, the ED50 came to 1.63 nM in assay [35]; 13600 nM in [36]; 14.1 nM in [37]; 143000 nM in assay [38]; 73.5 nM in assay [39]; 19.8 nM in [40]. Further, the ED50 in the assay listed under Homo sapiens [41] was 1.71 nM; at Macoilin (Homo sapiens) it was 92 nM; in the assay listed under Homo sapiens [42], 0.533 nM; in [43], 30 nM; in assay [44], 39400 nM; in [45], 9580 nM.
